# Data taken from US20240342255A1, “TARGETING 3-KETODIHYDROSPHINGOSINE REDUCTASE (KDSR) IN CANCER” (UNIVERSITY OF MASSACHUSETTS, priority 2021, published 2024).
# Values joined by “and” are separate entries in the source; they are usually repeats but may differ in a detail not shown here. Identical values can stand only once. Residues, ends and D or L forms follow the SMILES beside them. *: point of attachment. Cbz = O=C(OCc1ccccc1)*
# Experiments:
# Type in all cases: cell-based
# [1] = tested on: DLD1 cells; assay: Cell viability (CellTiter-Glo) with exogenous 3KDS treatment
# Procedure: Cell viability was measured using CellTiter-Glo 2.0 Cell Viability Assay (Promega), which measures the number of viable (metabolically active) cells in culture by quantitating the amount of ATP present. CellTiter-Glo (CTG) Reagent and 96 well plates containing the cells were equilibrated to room temperature, 20 ul of CTG reagent was added to each well of cells and incubated for 20 minutes protected from light. Luminescence was read with an integration time of 1.0 sec using the Beckman Coulter DTX880 Multimode Detector plate reader.
# For determination of relative viability as depicted in figures, CTG was measured at 2 different timepoints. The first viability measurement was taken as the baseline on the day after cells were plated to 96 wells, and the second viability measurement was taken at a later timepoint (1-5 days after baseline) to calculate the fold change viable cells over time for each condition (Day X CTG/Baseline CTG). These fold change values were then divided by the fold change of the control condition (=1.0) to determine the relative viability.
# [2] = tested on: DLD1 cells; assay: Cell morphology by light microscope / calnexin immunofluorescence
# [3] = tested on: DLD1 cells; assay: LC-MS quantification of sphingomyelin and ceramide after CRISPR-Cas9 gene KO; details: biological replicates (1)-(3); for Total (RATIO), Cer + SM by LC-MS / Cer (RATIO), total ceramide level by LC-MS / SM (RATIO), total sphingomyelin level by LC-MS: 8 days post lentiviral infection; for Cer (RATIO), total ceramide level by LC-MS / SM (RATIO), total sphingomyelin level by LC-MS: normalized intensities relative to internal standards per mg protein
# Procedure: DLD1 cells were plated to 6 wells and infected for lentiviral transduction of lentiCRISPR v2 with nontargeting CTRL guide, KDSR g1, or SPTLC1 g1, with each condition infected in biological triplicate. Cells were selected with puromycin for 5 days and collected for analysis at 8 days post lentiviral infection. Cells were trypsinized, quickly washed 2× in cold PBS, centrifuged, and the cell pellet was collected for analysis. Lipid analysis was performed at the UCSD Lipidomics Core^17. For quantification of sphingomyelin and ceramide species, samples were extracted via Butanol-Methanol (BUME) with 100 ul/sample. The lipid (top) layer was collected, solvent was removed, and samples were reconstituted in 100 ul LC solvent (18:1:1, IPA/DCM/MeOH). Samples were run on Reverse Phase-Ultra Performance Liquid Chromatography (Thermo Vanquish UPLC) on the Cortecs T3 C18 column. Mass spectrometry was performed on the Thermo Q Exactive Mass Spectrometer with MS/MS data dependent acquisition scan mode and analyzed with Lipid Data Analyzer (LDA) and LipidSearch software. All data are expressed as normalized intensities relative to exactly measured internal standards and constitute relative abundances per mg protein. For the identification of each lipid molecular species including its exact fatty acid composition, we used MS/MS footprinting techniques. Details of methods and nomenclature used were adapted from a previous study^18.
# Total sphingomyelin levels under each condition were calculated as the sum of 121 analytes and total ceramide levels as the sum of 81 analytes. The ratio of total sphingomyelin and ceramide levels in KDSR and SPTLC1 KO cells were calculated relative to CTRL cells as shown in FIG. 1e. The select species of sphingomyelins and ceramides shown in Extended Data FIG. 2 represent the top 10 most abundant species that were detected in all 3 biological replicate samples of the CTRL condition to show the effect of SPTLC1 and KDSR KO on the most abundant sphingolipids compared to CTRL.
# [4] = tested on: DLD1 cells; assay: LC-MS quantification of 3KDS in cultured cells
# Procedure: The levels of 3-ketodihydrosphingosine (3KDS) were quantified in both cells grown in culture and in tumor tissues from the in vivo xenograft experiment. Lipid analysis was performed at the UCSD Lipidomics Core^17. For the in vitro experiment, DLD1 cells were infected for lentiviral transduction of pLCv2 with nontargeting CTRL guide, KDSR g1, or SPTLC1 g1. Cells were selected with puromycin for 5 days and were treated with the appropriate conditions (vehicle, 50 uM palmitate, 15 uM myriocin) at 6 days post infection. Cells were trypsinized, quickly washed 2× in cold PBS, centrifuged, and the cell pellet was collected for analysis at 8 days post lentiviral infection and 48 hr post treatment. 3KDS quantification was normalized to the protein content of n=3 independently prepared cell extracts for each condition.
# Samples were extracted with DCM/MeOH (1:1) and 1× internal standards were added to extracts. Samples were vortexed, sonicated for 10 minutes, and then centrifuged at 5000 rpm for 5 min. Samples were re-extracted, combined, and dried down in a speed vac. Samples were run on the ACQUITY UPLC System (Waters) on a Phenomenex Kinetex C18 column. Mass spectrometry analysis was performed on the Sciex 6500 Qtrap mass spectrometer and data were analyzed using Sciex Analyst and Multiquant software packages.
# [5] = tested on: DLD1 cells; assay: Myriocin rescue and palmitate synergy viability experiments in KDSR KO cells
# Procedure: Cells were plated to 6 wells and infected with lentiviruses containing pLCv2 CTRL or guides targeting KDSR. Cells were selected with puromycin for 4-5 days and were then counted and plated to 96 well plates at 6 days post lentiviral infection at 600-800 cells/well in technical triplicate or quadruplicate. Baseline cell viability was read at 7 days post infection, at which time the other 96 well plates (to be read at later timepoints) were treated with DMSO vehicle or 2 uM myriocin for rescue experiments or with EtOH vehicle or 50 uM palmitate for synergy experiments. For myriocin rescue experiments, subsequent CTG readings were taken at days 3 and 5 post treatment (10 and 12 days post infection) to determine the effect of SPT inhibition on KDSR KO toxicity. For synergy experiments, subsequent CTG readings were taken at 24, 48, and 72 hr post treatment (8, 9, and 10 days post infection) to measure the effect of KDSR KO and palmitate treatment on cell viability relative to CTRL vehicle treated cells.
# To determine whether KDSR KO and 50 uM palmitate have a synergistic toxic effect on cells (FIG. 2C), we used the Bliss Independence Model. […]
# [6] = tested on: KDSR; assay: Western blot of KDSR protein after CRISPR/Cas9 targeting in non-cancerous cell lines; details: seven non-cancerous cell lines (THLE3, CCD841CON, CCD18Lu, HIEC6, HS67, GM05565, GM02037), FIGS. 10A-10G
# Procedure: (§1) Cells were washed in cold PBS and resuspended in 1% Triton-X 100 containing protease inhibitor cocktail and lysed on ice. Following cell lysis, samples were centrifuged at 13,000 rpm at 4° C. for 10 min to remove cell debris and the supernatant (cell lysate) was collected. The protein concentration of each lysate was measured by Bradford Assay. Western blot samples were prepared by diluting lysates in 6× Laemmli Buffer and boiled at 95° C. for 10 min. Samples were loaded to polyacrylamide gels at equal protein concentrations and analyzed by standard SDS-PAGE western blotting techniques. Protein levels were detected using HRP-conjugated secondary antibodies and chemiluminescent substrates (Pierce ECL or Pico PLUS).
# Western blots were performed to confirm that KDSR expression was reduced or eliminated in the cell line after CRISPR/Cas9 KO of KDSR. […] For each experiment, actin served as a loading control.
# [7] = tested on: DLD1 cells; assay: Western blot of K48 ubiquitinated proteins; details: DLD1 cells treated with MG132 (FIG. 4C)
# Procedure: as §1
# [8] = tested on: DLD1 cells; assay: Protein aggresome staining; details: 3 μM MG132, 18 hr
# Procedure: Cells were grown on coverslips coated with PDL/laminin and were stained for protein aggresomes at 9 days post lentiviral infection for CTRL or KDSR KO or 18 hr post treatment with vehicle or 3 uM MG132. Protein aggresomes were detected using the PROTOEOSTAT Aggresome detection kit (Enzo Life Sciences), which contains a dye that fluoresces upon intercalation into the cross-beta spine of protein structures found in misfolded and aggregated proteins. For aggresome staining, cells were fixed in 4% PFA, washed in PBS, and permeabilized in 0.5% TXB on ice with gentle shaking for 30 minutes. Cells were washed in PBS following permeabilization and were subsequently incubated with the Aggresome Detection Reagent diluted 1:2000 in PBS for 45 min at room temperature protected from light. Cells were washed with PBS after staining and coverslips were mounted to microscope slides using ProLong Gold Antifade Mountant containing DAPI. Cells were imaged using the Zeiss LSM700 confocal microscope and Zen Black 2012 Software.
# [9] = tested on: DLD1 cells; assay: Lipid free viability assay; details: 15 μM myriocin, 72 hr, 10% charcoal stripped serum (FIG. 1F)
# Procedure: DLD1 cells were grown in media with 10% FBS (normal growth condition) or 10% charcoal stripped serum (lipid free condition) for 1 week prior to lentiviral infection for CRISPR-mediated gene KO. Cells were infected in 6 wells, selected with puromycin, and plated to 96 wells as described previously in the appropriate serum conditions throughout the entirety of the experiment. Baseline CTG was measured at day 7 post infection, and subsequently at day 10 post infection. For the myriocin treated condition, CTRL cells were treated with 15 μM myriocin at day 7 post infection and were treated for 72 hr at the time of day 10 CTG measurement. Viability was calculated over the course of 3 days of growth and measured relative to CTRL untreated condition.
molecule,measurement,setting,value
"CCCCCCCCCCCCCCCC(=O)C(N)CO (stereo not drawn) [3KDS, 3-ketodihydrosphingosine]",effect of exogenous 3KDS on cell viability,"[1]; DLD1 cells, various doses, 24 hr (FIG. 2B)",cell toxicity
same,toxicity of 3KDS in KDSR KO cells,"[1]; KDSR g1 and g2 KO DLD1 cells, 5 μM 3KDS, 24 hr (FIG. 6)",even more toxic
same,cell morphology after 3KDS treatment,"[2]; wildtype DLD1 cells, 10 μM 3KDS, 24 hr (FIG. 2G)",aberrant ‘vacuolar’ morphology
"SPTLC1 g1: CRISPR-Cas9 guide RNA targeting SPTLC1, GTGCTACTCACCTTAACCCT, SEQ ID NO: 2 (expressed or natural sequence; listed as Homo sapiens)","Total (RATIO), Cer + SM by LC-MS",[3],720.1 and 485.8 and 520.4
same,"Cer (RATIO), total ceramide level by LC-MS",[3],66.2 and 36.6 and 66.9
same,"SM (RATIO), total sphingomyelin level by LC-MS",[3],653.9 and 449.2 and 453.5
same,Cer (Percentage of total),[3],9.2% and 7.5% and 12.9%
same,SM (Percentage of total),[3],90.8% and 92.5% and 87.1%
"CCCCCCCCCCCCCCCC(=O)O [palmitate, Palmitic Acid]",accumulation of 3KDS,"[4]; KDSR KO DLD1 cells treated with 50 μM palmitate, 48 hr, relative to CTRL vehicle (FIG. 2F)",800 fold
same,effect of palmitate on viability of KDSR KO cells (Bliss independence),"[5]; 50 μM palmitate, 48 hr (FIG. 2C)",synergized with the toxic effect of KDSR KO
"KDSR g1: CRISPR-Cas9 guide RNA targeting KDSR, TGTGTGCAAACCAGAACAGG, SEQ ID NO: 4 (listed as DNA, chemistry not given here; listed as Homo sapiens)","Total (RATIO), Cer + SM by LC-MS",[3],535.9 and 709.0 and 681.9
same,"Cer (RATIO), total ceramide level by LC-MS",[3],67.9 and 101.4 and 99.2
same,"SM (RATIO), total sphingomyelin level by LC-MS",[3],468.0 and 607.6 and 582.7
same,Cer (Percentage of total),[3],12.7% and 14.3% and 14.5%
same,SM (Percentage of total),[3],87.3% and 85.7% and 85.5%
same,KDSR expression after CRISPR/Cas9 targeting,[6],eliminated or substantially reduced
"CC(C)C[C@@H](C=O)NC(=O)[C@H](CC(C)C)NC(=O)[C@H](CC(C)C)NC(=O)OCc1ccccc1 [MG132, MG-132] (Cbz-Leu-Leu-Leu-aldehyde)",morphological phenotype / ER structure,"[2]; DLD1 cells, 3 μM MG132, 18 hr, light microscope and calnexin IF (FIG. 4D)",strongly resembled the aberrant enlarged ER structures
same,levels of K48 ubiquitinated proteins,[7],accumulation of K48 ubiquitinated proteins
same,protein aggresome formation,[8],induced formation of protein aggresomes
"CCCCCCC(=O)CCCCCC/C=C/C[C@@H](O)[C@H](O)[C@@](N)(CO)C(=O)O [myriocin, Myriocin]",3KDS accumulation in KDSR KO cells under SPT inhibition,"[4]; KDSR KO DLD1 cells, 15 μM myriocin, 48 hr (FIG. 2F)",prevented 3KDS accumulation
same,effect of myriocin on viability of KDSR KO cells,"[5]; 2 μM myriocin, 72 hr (FIG. 2D)",rescued against the loss of viability
same,viability in lipid-free serum,[9],detrimental to cancer cell viability
same,morphology of KDSR KO cells under SPT inhibition,"[2]; KDSR KO DLD1 cells, 15 μM myriocin, 48 hr (FIG. 2G)",rescued the aberrant morphological phenotype
"KDSR g2: CRISPR-Cas9 guide RNA targeting KDSR, GGCAAACTTGGATGCAGAGT, SEQ ID NO: 5 (listed as DNA, chemistry not given here; listed as Homo sapiens)",KDSR expression after CRISPR/Cas9 targeting,[6],eliminated or substantially reduced
